Test results reported in article PMC10204800 (Frontiers in Pharmacology, 2023).

Target: T1, hDOR (human delta opioid receptor) (Homo sapiens, UniProt P41143)
T1 construct: gene OPRD1; stably transfected in CHO cells (CHO-hDOR); membrane homogenates
Format: binding
Details: read-out: Ki values (nM) Mean (SEM)

T1 sequence (P41143 whole entry): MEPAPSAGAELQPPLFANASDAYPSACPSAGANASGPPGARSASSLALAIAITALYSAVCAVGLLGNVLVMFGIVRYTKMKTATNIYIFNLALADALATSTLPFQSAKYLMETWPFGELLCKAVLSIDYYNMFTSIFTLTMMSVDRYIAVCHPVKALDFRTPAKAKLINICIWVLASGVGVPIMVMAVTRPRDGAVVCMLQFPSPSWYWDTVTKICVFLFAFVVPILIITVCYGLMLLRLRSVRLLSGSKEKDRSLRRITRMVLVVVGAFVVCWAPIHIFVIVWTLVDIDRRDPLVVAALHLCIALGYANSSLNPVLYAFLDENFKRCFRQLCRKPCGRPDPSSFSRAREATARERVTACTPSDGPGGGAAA

In the case of “(4R,4aS,6R,7R,7aR,12bS)-3-(cyclopropylmethyl-d 2 )-6-(2-hydroxy-3,3-dimethylbutan-2-yl)-7-methoxy-1,2,3,4,5,6,7,7a-octahy dro-4a,7-ethano-4,12-methanobenzofuro[3,2-e]isoquinolin-9-ol [BUP-D2]”, the Ki is reported as 0.424 nM.
